# Assay results: patent US20090130064A1, “DIFFERENTIATION OF STEM CELLS AND STABILIZATION OF PHENOTYPICAL PROPERTIES OF PRIMARY CELLS” (priority 2004, published 2009)
# What was measured:
# [1] = tested on: hMSC; assay: LDH-leakage cytotoxicity in hMSC; format: cell-based, human
# Method: Low-density hMSC (CD45^−, Thy^+) were cultivated at 21.5 10^3 cells cm^2 on 1 mg/ml collagen gel type I matrix in the presence of liver-specific (LSP) cytokines, added either as a cocktail [basal medium supplemented with 10 ng/ml FGF-4 (fibroblast growth factor type 4), 20 ng/ml HGF (hepatic growth factor) (all from R&D), 1×ITS (insulin, transferrin, selenious acid) and 0.05 μM Dex (dexamethasone) (all from Sigma)] or sequentially [basal medium supplemented with 10 ng/ml FGF-4, following basal media supplemented with 20 ng/ml HGF (R&D) and finally basal medium supplemented with 20 ng/ml HGF, 1×ITS and 0.05 μM Dex]. Basal medium consisted of 60% (v/v) DMEM-LG/40% (v/v) MCDB-201 supplemented with 1 mg/ml LA-BSA, 100 IU/ml penicillin, 100 μg/ml streptomycin, 0.1 mM L-ascorbic acid, 4 μg/ml nicotinamide, 27.3 mg/l sodium-pyruvate and 1.623 mM glutamin (all from Sigma). The media were changed every three days.
# The assay was done with an LDH-kit (Merck 1 14869.0001; Ecoline 1S) according to the manufacturer's recommendations.
# [2] = tested on: Cx26; assay: Cx26 expression and localization (immunoblotting, immunocytochemistry) in rat hepatocytes; format: cell-based; conditions: 1 μM TSA
# Method: In all conditions, the hepatocytes were cultivated as a monolayer configuration, and samples were taken at days 1, 4 and 7 (D1, D4, D7) of the cultivation time.
# Proteins (25 or 50 μg) were resolved on SDS-PAGE (7.5, 10 or 12%) and blotted afterwards onto nitrocellulose membranes. After blocking with non-fatty milk, membranes were incubated with appropriate concentrations of primary and secondary antibodies (HRP labeled). Proteins were detected using the ECL detection system (Amersham Biosciences). Primary antibodies: Cx26 (Zymed, 1/250), Cx32 (Sigma, 1/500), Cx43 (Zymed, 1/100).
# Hepatocytes were fixed with cold ethanol, peremeabilised with Triton X-100 (Sigma) and blocked with non-fatty milk. Following incubation with appropriate concentrations of primary and secondary antibodies (FITC or TRITC labeled), samples were mounted with DAPI-containing Vectashield (Vector Laboratories). Detection was performed by fluorescence microscopy (Leica DMR/XA).
smiles,measurement,setting,value
CC(C=CC(=O)NO)=CC(C)C(=O)c1ccc(N(C)C)cc1 (centres unmarked) [TSA],cytotoxicity (LDH leakage),[1]; 1 μM TSA,did not cause immediate cell death
same,cell lethality (LDH leakage),"[1]; 1 μM TSA, from day 13 (cocktail) and day 3 (sequential) on",significantly downregulated cell lethality
same,cytotoxicity (LDH leakage),[1]; 5 and 25 μM TSA from day 0 until addition of HGF,immediate cell death
same,expression of Cx26,[2],decreases the expression
same,localization of Cx26,[2],perinuclear localization
